According to patent publication EP1561465A2, “Methods of use of fluoroquinolone compounds against bacteria” (LG Life Sciences, Ltd., priority 1999, dated 2001):
Values after ≈ are worked out from the molar mass of the structure shown. Where two headings read alike, the source gives them in different places.

Experiments:
Salmonella spp. [1] = assay: MIC by agar dilution (NCCLS M7-A4), 288 enteropathogenic isolates, gemifloxacin and 15 other antimicrobials; assay type: cell-based
Salmonella spp. [2] = assay: MIC by NCCLS broth microdilution, 1100 Japanese clinical isolates 1997-1998; assay type: cell-based; conditions: Salmonella spp. (n=29)
Staphylococcus aureus [3] = assay: MIC by agar dilution (NCCLS), 411 isolates Buenos Aires 1998-99; assay type: cell-based; conditions: for MIC90: Staphylococcus aureus
Staphylococcus aureus [4] = assay: MIC by NCCLS broth microdilution, 1100 Japanese clinical isolates 1997-1998; assay type: cell-based; conditions: for MIC: Staphylococcus aureus quinolone resistant, read-out: MIC
[5] = system: Mycobacterium tuberculosis (MTB); assay: MIC by proportions method (NCCLS M24-T, 1995), 82 MTB strains; assay type: cell-based; conditions: Mycobacterium tuberculosis; 82 MTB strains
Campylobacter jejuni = assay: MIC by agar dilution (NCCLS M7-A4), 288 enteropathogenic isolates, gemifloxacin and 15 other antimicrobials; conditions: for MIC: Campylobacter jejuni
P. aeruginosa = assay: MIC by two-fold serial agar dilution, quinolone-resistant strains; assay type: cell-based; conditions: Pseudomonas aeruginosa
Proteus vulgaris = assay: MIC by NCCLS broth microdilution, 1100 Japanese clinical isolates 1997-1998; assay type: cell-based
Shigella spp. = assay: MIC by agar dilution (NCCLS M7-A4), 288 enteropathogenic isolates, gemifloxacin and 15 other antimicrobials; assay type: cell-based; conditions: Shigella spp. N= 21
Method in brief: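 Agar dilution with ~10^4 cfu/spot inoculum; plates incubated aerobically at 35 °C for 24 h, except C. jejuni, held microaerophilically for 48 h. MIC taken as lowest antibiotic concentration with no visible growth.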

Enterococcus faecalis = assay: MIC by agar dilution (NCCLS), 411 isolates Buenos Aires 1998-99; assay type: cell-based; conditions: Enterococcus faecalis (n = 48)
Hafnia alvei [6] = assay: MIC by agar dilution (NCCLS M7-A4), 288 enteropathogenic isolates, gemifloxacin and 15 other antimicrobials; assay type: cell-based; conditions: Hafnia alvei N= 32
Proteus mirabilis = assay: MIC by NCCLS broth microdilution, 1100 Japanese clinical isolates 1997-1998; assay type: cell-based
Hafnia alvei [7] = assay: MIC by agar dilution (NCCLS M7-A4), 288 enteropathogenic isolates, eight quinolones; assay type: cell-based; conditions: Hafnia alvei (n = 32)
Klebsiella pneumoniae = assay: MIC by NCCLS broth microdilution, 1100 Japanese clinical isolates 1997-1998; assay type: cell-based
Enterobacter cloacae = assay: as above; assay type: cell-based; conditions: Enterobacter cloacae (n=40)
[8] = S. aureus, Methicillin resistant (n = 14)
[9] = S. aureus, Methicillin susceptible (n = 66)
[10] = Staphylococcus aureus, Staphylococcus aureus oxacillin resistant (n=57)
[11] = 24 h, read-out: MIC (mg/L) Range

C[C@H]1COc2c(N3CCN(C)CC3)c(F)cc3c(=O)c(C(=O)O)cn1c23 [Levofloxacin, levofloxacin]
MIC (Salmonella spp. [1]; S. hadar(2), isolates with MICs for ciprofloxacin ≥[…], read-out: MIC): 1 mg/L (≈ 2.77 µM) | MIC (Salmonella spp. [1]; S. newport(1), isolate with MIC for ciprofloxacin ≥[…], read-out: MIC): 1 mg/L (≈ 2.77 µM) | MIC (Salmonella spp. [1]; S. virchow(2), isolates with MICs for ciprofloxacin ≥[…], read-out: MIC): 0.25 mg/L (≈ 0.692 µM) | MIC (mg/L) Range (Salmonella spp. [1]; Salmonella spp. N= 106): 0.06 to 1 mg/L | MIC (Salmonella spp. [1]; Salmonella, S. tshiongwe(1), isolate with MIC for ciprofloxacin ≥[…], read-out: MIC): 1 mg/L (≈ 2.77 µM) | MIC (Salmonella spp. [1]; Salmonella, read-out: MIC (mg/L) 50%, Salmonella spp. N= 106): 0.06 mg/L (≈ 0.166 µM) | MIC (Salmonella spp. [1]; Salmonella, read-out: MIC (mg/L) 90%, Salmonella spp. N= 106): 0.25 mg/L (≈ 0.692 µM) | MIC50 (Salmonella spp. [2]): 0.063 µg/mL (≈ 0.174 µM) | MIC90 (Salmonella spp. [2]): 0.063 µg/mL (≈ 0.174 µM) | MIC Range (Salmonella spp. [2]): 0.032 to 0.063 µg/mL | Resistance (%) (Staphylococcus aureus [3]; [8]): 100% | Resistance (%) (Staphylococcus aureus [3]; [9]): 0% | MIC Range (Staphylococcus aureus [3]; Staphylococcus aureus (n = 80)): 0.06 to 8 µg/mL | MIC90 (Staphylococcus aureus [3]; [8]): 8 µg/mL (≈ 22.1 µM) | MIC90 (Staphylococcus aureus [3]; [9]): 0.25 µg/mL (≈ 0.692 µM) | MIC90 (Staphylococcus aureus [3]; Staphylococcus aureus (n = 80)): 4 µg/mL (≈ 11.1 µM) | MIC Range (Staphylococcus aureus [4]; Staphylococcus aureus oxacillin susceptible (n=41)): 0.125 to 1 µg/mL | MIC50 (Staphylococcus aureus [4]; [10]): 4 µg/mL (≈ 11.1 µM) | MIC90 (Staphylococcus aureus [4]; [10]): 64 µg/mL (≈ 177 µM) | MIC50 (Staphylococcus aureus [4]; Staphylococcus aureus, Staphylococcus aureus oxacillin susceptible (n=41)): 0.25 µg/mL (≈ 0.692 µM) | MIC (Staphylococcus aureus [4]; Staphylococcus aureus, strain TMS3): > 128 µg/mL | MIC (Staphylococcus aureus [4]; Staphylococcus aureus, strain TMS4): 16 µg/mL (≈ 44.3 µM) | MIC (Staphylococcus aureus [4]; Staphylococcus aureus, strain TMS5): 4 µg/mL (≈ 11.1 µM) | MIC (Staphylococcus aureus [4]; Staphylococcus aureus, strain TMS6): 2 µg/mL (≈ 5.53 µM) | MIC90 [5]: 1 µg/mL (≈ 2.77 µM) | MIC (mg/L) Range (Campylobacter jejuni; Campylobacter jejuni N= 91): 0.06 to 128 mg/L | MIC (Campylobacter jejuni; read-out: MIC (mg/L) 50%): 8 mg/L (≈ 22.1 µM) | MIC (Campylobacter jejuni; read-out: MIC (mg/L) 90%): 32 mg/L (≈ 88.6 µM) | MIC (P. aeruginosa): 2 µg/mL (≈ 5.53 µM) | MIC90 (Proteus vulgaris; Proteus vulgaris): 0.125 µg/mL (≈ 0.346 µM) | MIC Range (Proteus vulgaris; Proteus vulgaris (n=25)): 0.032 to 1 µg/mL | MIC50 (Proteus vulgaris; Proteus vulgaris (n=25), read-out: MIC50): 0.063 µg/mL (≈ 0.174 µM) | MIC (Shigella spp.; [11]): 0.015 to 0.03 mg/L (≈ 0.0415 to 0.083 µM) | MIC (Shigella spp.; read-out: MIC (mg/L) 50%): 0.03 mg/L (≈ 0.083 µM) | MIC (Shigella spp.; read-out: MIC (mg/L) 90%): 0.03 mg/L (≈ 0.083 µM) | MIC90 (Enterococcus faecalis): > 32 µg/mL | MIC (Hafnia alvei [6]; [11]): 0.015 to 0.03 mg/L (≈ 0.0415 to 0.083 µM) | MIC (Hafnia alvei [6]; read-out: MIC (mg/L) 50%): 0.03 mg/L (≈ 0.083 µM) | MIC (Hafnia alvei [6]; read-out: MIC (mg/L) 90%): 0.03 mg/L (≈ 0.083 µM) | MIC90 (Proteus mirabilis; Proteus mirabilis): 0.125 µg/mL (≈ 0.346 µM) | MIC Range (Proteus mirabilis; Proteus mirabilis (n=30)): 0.032 to 2 µg/mL | MIC50 (Proteus mirabilis; Proteus mirabilis (n=30), read-out: MIC50): 0.063 µg/mL (≈ 0.174 µM) | % Susceptible (Hafnia alvei [7]): 100% | MIC50 (Hafnia alvei [7]): 0.03 µg/mL (≈ 0.083 µM) | MIC90 (Hafnia alvei [7]): 0.03 µg/mL (≈ 0.083 µM) | MIC Range (Hafnia alvei [7]): ≤0.015 to 0.03 µg/mL | MIC90 (Klebsiella pneumoniae; Klebsiella pneumoniae): 0.125 µg/mL (≈ 0.346 µM) | MIC50 (Klebsiella pneumoniae; Klebsiella pneumoniae (n=35)): 0.032 µg/mL (≈ 0.0886 µM) | MIC Range (Klebsiella pneumoniae; Klebsiella pneumoniae (n=35)): 0.016 to 4 µg/mL | MIC50 (Enterobacter cloacae): 0.032 µg/mL (≈ 0.0886 µM) | MIC90 (Enterobacter cloacae): 0.5 µg/mL (≈ 1.38 µM) | MIC Range (Enterobacter cloacae): 0.016 to 1 µg/mL
